Assay results from US11369623B2, “Anticancer combination of a CBP/catenin inhibitor and an immune checkpoint inhibitor” (PRISM Pharma Co., Ltd., priority 2015, dated 2022).

Key:
[1] = system: spontaneous breast cancer of transgenic mouse (MMTV-Wnt-1); assay: Tumor volume in mice serially transplanted with spontaneous breast cancer of transgenic mouse (MMTV-Wnt-1); type: in vivo, mouse (C57BL/6J); details: compound A 50 mg/kg twice per day oral, antibody 10 mg/kg twice per week i.p.
Excerpt: Effect of combined use of CBP/catenin inhibitor (compound A) and anti-mouse PD-1 (CD279) antibody in animal model serially transplanted with subcultured spontaneous breast cancer of transgenic mouse (MMTV-Wnt-1)
Spontaneous breast cancer of transgenic mouse (MMTV-Wnt-1), in which Wnt-1 had been locally expressed in mammary gland epithelial cells, was harvested, and serially transplanted to the background line mouse (C57BL/6J) with trocar. When the serially transplanted tumor became about 1.5 g, it was isolated, processed into fragments of about 30 mg, and subcutaneously transplanted to the side of the body of 5 mice (C57BL/6J) per each group. Engraftment of the tumor was confirmed, and compound A (50 mg/kg, twice per day, 21 days, oral administration) and anti-mouse PD-1 antibody (Clone: RMP1-14, BioXCell) (10 mg/kg, twice per week, 3 weeks, intraperitoneal administration) were each administered singly or in combination.
With the day of the start of administration as day 0, the major axis and the minor axis of the tumor developed in each mouse were measured by Digimatic Caliper (Mitsutoyo) on days 4, 7, 11, 14, 18, and 21.
The tumor volume was calculated according to the following formula. tumor volume TV(mm^3)=tumor major axis(mm)×tumor minor axis^2(mm^2)/2

bile duct cancer = details: cited from earlier work
[2] = cited from earlier work
[3] = system: 624 mel cells and 928 mel cells; assay: Influence on proliferation of melanoma cells; type: cell-based, human; details: 24 hr, any cell
[4] = system: 624 mel cells and 928 mel cells; assay: IL-10 production by melanoma cells (ELISA of culture supernatant); type: cell-based, human; details: 0.2 μM, 24 hr, FIG. 5
Method: IL-10 Production Suppressive Action of CBP/Catenin Inhibitor (Compound 1)
624 mel cells and 928 mel cells were used, which are cell lines (melanoma) established from human malignant melanoma patients by US NIH. These cells have been activated and have IL-10 production ability.
In a culture medium (10% FCS-containing RPMI1640, penicillin and streptomycin added), respective melanoma cells were seeded in a 6-well plate at a concentration of 1×10^5 cells/2 ml/well. After seeding, compound 1 was added to a given concentration and the cells were cultured for 24 hr. After 24 hr, the culture supernatant was recovered, and the concentration of IL-10 in the supernatant was measured. For the measurement of IL-10 concentration, Human IL10 OptEIA ELISA set (BD, #555157) was used.

[5] = system: human breast cancer cell line (MDA-MB-231); assay: Side population (cancer stem cell) fraction of MDA-MB-231 after compound treatment; type: cell-based; details: 0.3 μM in culture medium, after 4 days; untreated 1.6% SP cells
Method: To a side population fraction (cancer stem cells were considered to have been concentrated) obtained by two-dimensional cell sorting of human breast cancer cell line (MDA-MB-231) with Hoechst Blue and Hoechst Red was added 0.3 μM CBP/catenin inhibitor (compound 2) in the culture medium. After 4 days, the side population fraction almost disappeared (when untreated with medicament, 1.6% SP cells were detected, whereas 0% was detected in compound 2 treatment group), and the cancer stem cells were considered to have differentiated (FIG. 3).

## C=CCN1CC(=O)N2[C@@H](Cc3ccc(O)cc3F)C(=O)N(Cc3cccc(N4CC(N5CCN(CC)CC5)C4)n3)C[C@@H]2N1C(=O)NCc1ccccc1 [compound A, (6S,9aS)-N-benzyl-8-((6-(3-(4-ethylpiperazin-1-yl)azetidin-1-yl)pyridin-2-yl)methyl)-6-((2-fluoro-4-hydroxyphenyl)methyl)-4,7-dioxo-2-(prop-2-en-1-yl)-octahydro-1H-pyrazino[2,1-c][1,2,4]triazine-1-carboxamide]
[1]; Day 0
  tumor volume TV, Mean ± SEM: 75.3 ± 9.2 mm^3
[1]; Day 4
  tumor volume TV, Mean ± SEM: 83.2 ± 8.5 mm^3
[1]; Day 7
  tumor volume TV, Mean ± SEM: 90.5 ± 22.3 mm^3
[1]; Day 11
  tumor volume TV, Mean ± SEM: 123.1 ± 40.5 mm^3
[1]; Day 14
  tumor volume TV, Mean ± SEM: 140.4 ± 45.1 mm^3
[1]; Day 18
  tumor volume TV, Mean ± SEM: 221.6 ± 47.9 mm^3
[1]; Day 21
  tumor volume TV, Mean ± SEM: 237.7 ± 41.2 mm^3

## O=C1[C@H](Cc2ccc(O)cc2)N2C(=O)CCN(C(=O)NCc3ccccc3)[C@H]2CN1Cc1cccc2ccccc12 [ICG-001, (6S,9aS)-N-benzyl-6-[(4-hydroxyphenyl)methyl]-8-(naphthalen-1-ylmethyl)-4,7-dioxo-3,6,9,9a-tetrahydro-2H-pyrazino[1,2-a]pyrimidine-1-carboxamide]
Bile duct cancer
  proliferation inhibitory effect in animal model: strong proliferation inhibitory effect

## C[C@H]1[C@H]2N(C(=O)CN(C)N2C(=O)NCc2ccccc2)[C@@H](Cc2ccc(OP(=O)(O)O)cc2)C(=O)N1Cc1cccc2cccnc12 [PRI-724]
[2]
  toxicity in human compared with conventional Wnt inhibitors having other mechanisms: clearly less toxic in human than conventional Wnt inhibitors

## C[C@H]1[C@H]2N(C(=O)CN(C)N2C(=O)NCc2ccccc2)[C@@H](Cc2ccc(OP(=O)(O)O)cc2)C(=O)N1Cc1cccc2cccnc12 [compound 1, 4-(((6S,9S,9aS)-1-(benzylcarbamoyl)-2,9-dimethyl-4,7-dioxo-8-(quinolin-8-ylmethyl)octahydro-1H-pyrazino[2,1-c][1,2,4]triazin-6-yl)methyl)phenyl dihydrogen phosphate]
[3]; 0.2 μM
  influence on the proliferation: an influence on the proliferation was not confirmed
[3]; 1 μM
  influence on the proliferation: an influence on the proliferation was confirmed
[4]
  production of IL-10: production of IL-10 was suppressed

## C[C@H]1[C@H]2N(C(=O)CN(C)N2C(=O)NCc2ccccc2)[C@@H](Cc2ccc(O)cc2)C(=O)N1Cc1cccc2cccnc12 [compound 2, (6S,9S,9aS)-N-benzyl-6-(4-hydroxybenzyl)-2,9-dimethyl-4,7-dioxo-8-(quinolin-8-ylmethyl)octahydro-1H-pyrazino[2,1-c][1,2,4]triazine-1-carboxamide]
[5]
  SP cells detected (side population fraction): 0%
